# Laboratory results published in US20250009702A1 (SICHUAN JIUZHANG BIOLOGICAL SCIENCE AND TECHNOLOGY CO., LTD., priority 2021, published 2025).
# Experiments:
# [1] = system: pfeiffer cancer cells (diffuse large B-cell lymphoma cell line); assay: MTS assay of the in vitro inhibitory effect on DLBCL cells (pfeiffer); type: cell-based; conditions: for OD value Mean / OD value 1 / OD value 2 / OD value 3: MTS, 490 nm; for OD value 1: well 1; for OD value 2: well 2; for OD value 3: well 3
# Experimental: 2.2 MTS Assay of the In Vitro Inhibitory Effect of the Treatment Group on DLBCL Cells (Pfeiffer)
# The cells in logarithmic growth phase were digested with 0.25% trypsin, washed with the basic medium, and centrifuged (1000 r/min, twice in 5 minutes). The cells were suspended with complete medium, and the cell concentration was adjusted to […], which was inoculated into a 96-well plate at 50 μl/well (6×10^3 cells/well).
# The next day, after the cells adhered to the wall, the drug was given to each group and then incubated for 48 h at a constant temperature of 37° C. under 5% CO2. The dosage for each well is 100 μl. For the blank group, no cell was inoculated, and an equal amount of medium (100 μl) was added; the negative control group received an equal amount of medium (100 μl) after cell inoculation, and 3 wells were set for one group.
# 20 μl of MTS was added to each well. The plate was further cultivated for 3 h for color development, and then shaken for 10 seconds before testing, to mix well.
# The OD value was determined at a wavelength of 490 nm using an enzyme-linked immunosorbent assay (ELISA), and the OD value of the blank control was adjusted to 0.
# [2] = system: DLBCL in the orbit (DLBCL pfeiffer cell lines); assay: In vivo treatment of DLBCL in the orbit (pfeiffer transplanted tumor model)
# Experimental: DLBCL pfeiffercell lines were purchased from ATCC, USA.
# (§1) BALB/c mice: 60 mice, half male and half female, 3-4 weeks old, weighing 15-22 g, purchased from the Experimental Animal Management Center of West China Medical Center.
# The cells were thawed in a 37° C. water bath according to the method provided by ATCC, and cultured in RPMI-1640 medium. The medium was exchanged or the cells were passaged every 1-2 days. When the cells were in a stable proliferative state, the cells with good vitality were selected from the 2nd to 3rd generations and counted under a microscope using a cell counting board. The concentration of inoculate cells was adjusted to 1.5×10^8/ml, and sealed for later use.
# The tumor cell suspension inoculation method was used. Before cell inoculation, all mice were subjected to cesium-137 radiation to further immunosuppress and improve the success rate of inoculation. Tumor cells were inoculated within 6 hours after irradiation. After disinfecting with 75% alcohol around the eyes, 0.1 ml of tumor cell suspension was drawn using an 1 ml empty needle, and injected into the orbit through the skin of the upper temporal eyelid. […] After inoculation, high-pressure sterilized water containing 100000 U/L of gentamicin was given for one week to prevent infection. 5% glucose with egg yolk was orally administered daily to enhance nutrition. The growth state of mice and local tumor growth was observed every day.
# The drug preparation was formulated prior to daily administration, and given for 14 days.
# (§2) During the administration period, the growth of the mouse tumor, eating, activity, and other adverse reactions were observed and recorded every other day. After 14 days of administration, the mice were euthanized using cervical dislocation method, and their body weight and tumor size were measured and recorded according to the pre-administration numbers. The tumor inhibition rate (%) was calculated based on tumor weight.
# [3] = system: DLBCL in the brain (DLBCL Ly8 cell lines); assay: In vivo treatment of DLBCL in the brain (Ly8 transplanted tumor model); conditions: i.p. 3 mg/kg once every two days
# Description: DLBCL Ly8 cell lines were purchased from the Cancer Hospital of Fudan University, which were suspended, cultured, and passaged in 10% calf serum DMEM complete medium, with stable growth. Cells in the logarithmic growth phase were collected, centrifuged, counted, and diluted to 10^4/μl for later use. Cells were inoculated at 2×10^4 cells/animal.
# as §1
# The mice were anesthetized by intraperitoneal injection of 1% pentobarbital sodium (0.2 μl), fixed on a stereotactic device, and disinfected with 2% chlorhexidine iodine solution on the skin of skull part. The injection site of the syringe was 0.1 cm to the left or right of the midline of the skull, and 0.3 cm in front of the coronal suture in mice. The microsyringe was sequentially penetrated through the skin and skull of the mouse skull part, and was fixed about 1-2 mm into the skull. 2 μl of Ly8 cell suspension was slowly injected (about 2×10^4 cells), and the injection was performed within 15 minutes, followed by leaving the needle for 5 minutes to allow the cells to fully attach, and then slowly removing the needle. […] During sleep after anesthesia, the mice were kept at 30° C. for 2 h. After anesthesia wore off, the mice were placed at room temperature of 25° C., and the surface changes were observed 24 h after inoculation. The following symptoms were observed: topical protrusion on the injection side, body emaciation, lethargy, and decreased mobility.
# The mice in the above test drug groups receiving the prepared drug were administered by intraperitoneal injection at 0.2 mL/10 g body weight. The drug preparation was formulated prior to daily administration, and given for 14 days.
# as §2
# [4] = Homo sapiens, 10 μg/ml, 48 h, pfeiffer cells, read-out: Inhibition rate (%)
# [5] = i.p. 3 mg/kg once every two days, 14 days
smiles,measurement,setting,value
"O=C(/C=C/c1ccc(O)c(O)c1)O[C@@H]1C[C@](O)(C(=O)O)C[C@@H](O)[C@H]1O [CHA, Chlorogenic acid]",OD value Mean,"[1]; 5 μg/ml, 48 h",1.263
same,OD value 1,"[1]; 5 μg/ml, 48 h",1.335
same,OD value 2,"[1]; 5 μg/ml, 48 h",1.221
same,OD value 3,"[1]; 5 μg/ml, 48 h",1.233
same,OD value Mean,"[1]; 10 μg/ml, 48 h",1.149
same,OD value 1,"[1]; 10 μg/ml, 48 h",1.156
same,OD value 2,"[1]; 10 μg/ml, 48 h",1.142
same,OD value 3,"[1]; 10 μg/ml, 48 h",1.15
same,OD value Mean,"[1]; 30 μg/ml, 48 h",0.998
same,OD value 1,"[1]; 30 μg/ml, 48 h",1.006
same,OD value 2,"[1]; 30 μg/ml, 48 h",1.007
same,OD value 3,"[1]; 30 μg/ml, 48 h",0.98
same,OD value Mean,"[1]; 50 μg/ml, 48 h",0.628
same,OD value 1,"[1]; 50 μg/ml, 48 h",0.630
same,OD value 2,"[1]; 50 μg/ml, 48 h",0.621
same,OD value 3,"[1]; 50 μg/ml, 48 h",0.634
same,OD value Mean,"[1]; 100 μg/ml, 48 h",0.658
same,OD value 1,"[1]; 100 μg/ml, 48 h",0.661
same,OD value 2,"[1]; 100 μg/ml, 48 h",0.65
same,OD value 3,"[1]; 100 μg/ml, 48 h",0.664
same,cell morphology / growth of pfeiffer cancer cell lines under inverted microscope,"[1]; 50-100 μg/ml, 48 h",significant inhibitory effect
same,inhibition at 5 µg/mL,"[1]; Homo sapiens, 5 μg/ml, 48 h, pfeiffer cells, read-out: Inhibition rate (%)",45.7%
same,inhibition at 10 µg/mL,[1]; [4],50.6%
same,inhibition at 30 µg/mL,"[1]; Homo sapiens, 30 μg/ml, 48 h, pfeiffer cells, read-out: Inhibition rate (%)",57.1%
same,inhibition at 50 µg/mL,"[1]; Homo sapiens, 50 μg/ml, 48 h, pfeiffer cells, read-out: Inhibition rate (%)",73%
same,inhibition at 100 µg/mL,"[1]; Homo sapiens, 100 μg/ml, 48 h, pfeiffer cells, read-out: Inhibition rate (%)",71.7%
same,tumor inhibition rate,"[1]; concentration 50-100 μg/ml, pfeiffer cells",71.68-72.97%
same,inhibitory effect on pfeiffer cancer cells compared with methotrexate,[1]; same dose 10 μg/ml,higher inhibitory effect
CN(Cc1cnc2nc(N)nc(N)c2n1)c1ccc(C(=O)N[C@@H](CCC(=O)O)C(=O)O)cc1 [methotrexate],Body weight (g) Before administration,"[2]; before administration, group later given i.p. 3 mg/kg once every two days",19.31 ± 0.66 g
same,Body weight (g) After administration,[2]; [5],18.23 ± 0.79 g
same,Survival number (mice),[2]; [5],6 mice
same,Tumor inhibition rate (%),[2]; [5],41.14%
same,deaths,"[2]; positive control group, i.p. 3 mg/kg once every two days",1
same,Survival number (mouse),[3]; 14 days,6 mouse
same,Tumor inhibition rate (%),[3]; 14 days,41.06%
same,Tumor weight,[3]; 14 days,0.79 ± 0.12 g
same,Weight (g) After treatment,[3]; 14 days,17.26 ± 0.65 g
same,deaths,[3]; positive control group,1
same,OD value Mean,"[1]; 10 μg/ml, 48 h",1.193
same,OD value 1,"[1]; 10 μg/ml, 48 h",1.202
same,OD value 2,"[1]; 10 μg/ml, 48 h",1.193
same,OD value 3,"[1]; 10 μg/ml, 48 h",1.185
same,inhibition at 10 µg/mL,[1]; [4],48.7%
